From patent US7919260B2, “Screening methods using GPR52” (Takeda Pharmaceutical Company Limited, priority 2005, dated 2011)

What was measured:
Type in all cases: cell-based
[1] = test system: NMDA-type glutamate receptor; assay: Phosphorylation (Ser897) of NMDA-type glutamate receptor in rat primary culture neurons (western blot, Anti-phospho-NR1); conditions: 50 μM Compound A; cells recovered 1, 2, 5, 15 and 30 minutes after
Method: Using primary culture neurons from the rat […], phosphorylation of the NMDA-type glutamate receptor by GPR52 agonists was studied. Rat (Wistar, Charles River Japan) embryonic brain (E19) was dissected to isolate the cerebral cortex, and the cells were prepared using Neuron Dispersion Set (Dainippon Pharmaceutical). The cells were plated on a 24-well poly-L-lysine plate (3×10^5 cells/well) and incubated for 2 weeks in Neuro Basal (B27, containing 0.5 mM glutamine, GIBCO) medium. Compound A was added to the above cells at a final concentration of 50 μM, and the cells were recovered 1, 2, 5, 15 and 30 minutes after. After the cells were lysed in Invitrogen's NuPAGE Sample Buffer (containing DTT), western blot analysis was performed using antibody Anti-phospho-NR1 (Ser897) (Upstate).

[2] = biological target: T1, GPR52 (Homo sapiens, UniProt Q9Y2T5); assay: Screening of GPR52 agonists: intracellular cAMP in GPR52 stable expression cells (AlphaScreen cAMP Assay Kit); parameters: expressed in transfected cells; conditions: secondary screening at 100-0.1 μM
Method: The GPR52 stable expression cells prepared in REFERENCE EXAMPLE 1 were incubated in a 150 cm^2 at 37° C. overnight in a CO2 incubator. After the incubation, the cells were detached with 0.5 mM EDTA/PBS, and washed in PBS. The cells were then suspended at a density of 1×10^7 cells/ml in Buffer 1 (HBSS+0.1% BSA, 25 mM HEPES, pH 7.3, 0.5 mM IBMX). This cell suspension, 440 μl, was mixed with 22 μl of Anti-cAMP Acceptor Beads of AlphaScreen cAMP Assay Kit (Perkin Elmer) and 638 μl of Buffer 1. The resulting mixture was dispensed on a white 96-well plate (Costar) by 10 μl each. Next, 10 μl each of the test compound dilutions in Buffer 1 was added to each well. After shaking at room temperature for 30 minutes, 20 μl of Biotinyl cAMP and 82 μl of Streptavidin Donor Beads of AlphaScreen cAMP Assay Kit was added to 40 ml of Buffer 2 (HBSS+0.1% BSA, 25 mM HEPES, pH 7.3, 1.5% Tween 20) and the resulting mixture was added to all wells of the plate by 30 μl each. The plate was kept shaken at room temperature for 3 hours and the fluorescence intensities were measured by Fusion α (Perkin Elmer).
Secondary screening was applied to these compounds in various concentrations (100 μM, 30 μM, 10 μM, 3 μM, 1 μM and 0.1 μM) using the procedures described in EXAMPLE 11 (detailed analysis).

[3] = test system: NMDA-type glutamate receptor; assay: Activation of NMDA-type glutamate receptor in neurons from rat embryonic cerebral cortex (fura-2 intracellular calcium, AQUACOSMOS)
Method: Neurons from rat embryonic cerebral cortex (CAMBREX) were cultured in a 48-well poly-L-lysine (Sumitomo Bakelite) for 14-15 days by a modification of the method attached. A neuron culture medium (Dainippon Pharmaceutical) was used as a medium, unless otherwise indicated. Changes in intracellular calcium levels were assayed using AQUACOSMOS (Hamamatsu Photonics). For assaying the changes in intracellular calcium levels, the following pretreatment was made. First, in order to add fluorescence dye fura-2/AM (Molecular Probes) to cells, an assay buffer used to wash the cells immediately before the assay was prepared. To 1000 ml of HBSS (Invitrogen) supplemented with 20 ml of 1M HEPES (pH7.4) (DOJIN) (hereinafter HBSS/HEPES solution), 10 ml of a solution prepared by dissolving 710 mg of Probenecid (Sigma) in 5 ml of 1N NaOH and further adding 5 ml of the HBSS/HEPES solution thereto was added, and the resulting solution was used as the assay buffer. Next, an equal volume of 20% Pluronic acid (Molecular Device) was added to and mixed with the fura-2/AM stock solution. The mixture was dissolved in the assay buffer in a final concentration of 5 μM fura-2 to prepare the fura-2 fluorescence dye solution. The fura-2 fluorescence dye solution was loaded on neurons from the rat embryonic cerebral cortex, followed by incubation for 30-60 minutes. Thereafter, the changes in calcium levels in the individual neurons were determined using AQUACOSMOS (Hamamatsu Photonics).
Activation of the NMDA-type glutamate receptor in the cerebral cortex was analyzed by the procedures described in EXAMPLE 9.

[4] = biological target: T1, GPR52; assay: Changes in intracellular calcium levels on FLIPR in CNGC-E583M/HEK293 cells transiently expressing human GPR52; parameters: expressed in transfected cells; host or cells: CNGC-E583M/HEK293 cells (HEK293 stably expressing rat olfactory cyclic nucleotide-gated channel E583M), transient transfection of pAKKO-GPR52; conditions: human GPR52 transiently expressed in CNGC-E583M/HEK293; reserpine 1.0-100 μM (FIG. 1), methoctramine 15-75 μM (FIG. 2); no such response in control cells transfected with other receptor vector
Method: The stable expression cell line (CNGC-E583M/HEK293 cell line) of rat olfactory cyclic nucleotide-gated channel (CNGC-E583M), which was used as a host cell, was obtained by inserting rat olfactory cyclic nucleotide-gated channel (CNGC-E583M) cDNA into expression vector pcDNA3.1(+) neo (Invitrogen) (pcDNA3.1-CNGC), transfecting pcDNA3.1-CNGC into HEK293 cells (purchased from ATCC) in a conventional manner, and incubating the cells in DMEM (Dulbecco's modified Eagle medium) supplemented with 10% fetal calf serum (Invitrogen) and 800 mg/l geneticin (Invitrogen) under 5% CO2 at 37° C. [Fagan et al., FEBS, 500, 85 (2001); Reinescheid et al., European Journal of Pharmacology, 478, 27 (2003)]. The CNGC-E583M/HEK293 cells were incubated in a collagen-coated 75 cm^2 flask. […] First, an assay buffer was prepared to add fluorescence dye Fluo-3AM (DOJIN) to the cells or to wash the cells immediately before the FLIPR assay. […] The mixture was then added to 10.6 ml of the assay buffer supplemented with 105 μl of fetal calf serum, and 20 μl of 500 mM IBMX/DMSO was further added to prepare a fluorescence dye solution. The fluorescence dye solution was dispensed onto the cell plate by 100 μl each/well using an 8-channel pipette and the cells were incubated at 37° C. in a 5% CO2 incubator for an hour (dye loading). […]

[5] = biological target: T1, GPR52; assay: Increase of intracellular cAMP levels in human GPR52 expression CHO cell line (cAMP Screen Kit); parameters: expressed in transfected cells; conditions: reserpine in various concentrations, 30 minutes; negative controls Mock CHO and TGR5 CHO cell lines (FIG. 3)
Method: The human GPR52 expression CHO cells obtained in REFERENCE EXAMPLE 1 was washed in the assay medium (HBSS (Gibco BRL) supplemented with 0.2 mM isobutylmethylxanthine), followed by incubation for 30 minutes under conditions at 37° C. in 5% CO2. Then, reserpine diluted in the assay medium was added in various concentrations. The assay buffer alone was used as a Base. After the addition, incubation was conducted for 30 minutes under conditions at 37° C. in 5% CO2. The culture supernatant was discarded and the intracellular cAMP level was assayed on the plate reader (EnVision, Perkin-Elmer) in accordance with the protocol of cAMP Screen Kit (Applied Biosystems). As negative controls, the CHO cell line (Mock) wherein no exogenous receptor was expressed and the CHO cell line (TGR5) wherein Gs-conjugated receptor TGR5 was stably expressed were co-assayed.

[6] = biological target: T2, human GPR52-GFP (Homo sapiens, UniProt Q9Y2T5, I167T); assay: Internalization of GPR52-GFP fusion protein expressed in CHO cells (confocal microscopy); conditions: reserpine 10^-4 M, 30 minutes after addition
T2 construct: expressed in transfected cells; host or cells: CHO cells, vector pAKKO-111H
Text: An expression plasmid was constructed to express a fused protein of Green Fluorescent Protein (GFP) cDNA isolated from jellyfish or Auquorea victoria, fused to GPR52 at the C-terminus to fit the translation frame. In this case, a fragment excised from GFP expression vector pQBI25 (Takara Shuzo) was used as GFP cDNA. In GPR52, its termination codon was modified by PCR to recognition sequence with restriction enzyme NheI, and the GFP fragment was ligated thereto, which was inserted into the expression vector pAKKO-111H [Biochem. Biophys. Acta, 1219, 251 (1994)] and transfected to CHO cells in a conventional manner to obtain the human GPR52-GFP expression CHO cell line. The human GPR52-GFP expression CHO cells were suspended in a growth medium [αMEM (containing nucleic acids: Invitrogen) supplemented with 10% fetal calf serum (GIBCO BRL)] and plated on a Lab-TekII cover glass chamber with 4 chambers (Nalgen Nunc) in a concentration of 0.6×10^5 cells/chamber. […] In this case, GFP was excited at 488 nm.

SMILES	phosphorylation (Ser897) of the NMDA-type glutamate receptor [1]	EC50 [2] [nM]	calcium level increase on addition after glutamate ([3]; 10 μM glutamate, then 10 μM Compound A during diminution of the calcium increase)	calcium level increase, compound alone without glutamate ([3]; 15 μM Compound A alone, glutamate not added)	intracellular calcium ion levels [4]	calcium level increase (ratio of Fura-2 fluorescence) on addition after glutamate ([3]; 10 μM glutamate, then 0.2 mM methoctramine during diminution of the calcium increase, n=11 neurons (FIG. 4))	calcium level increase (ratio of Fura-2 fluorescence), compound alone without glutamate ([3]; 0.2 mM methoctramine alone, glutamate not added beforehand, n=27 neurons (FIG. 5))	intracellular cAMP levels [5]	internalization of GPR52-GFP fused protein (GFP fluorescence moved from cell membrane to cytoplasm) [6]
Cc1ncc2c(n1)N(CCCN1CCNCC1)CCC2Nc1cccc(Oc2cccc(Cl)c2)c1.Cl.Cl.Cl.Cl (stereo not shown) [Compound A, N-[3-(3-chlorophenoxy)phenyl]-2-methyl-8-[3-(1-piperazinyl)propyl]-5,6,7,8-tetrahydropyrido[2,3-d]pyrimidine-5-amine tetrahydrochloride]	induced phosphorylation (Ser897)	2100	reactivated to induce the calcium level increase	any increase in calcium levels was not observed	–	–	–	–	–
COc1ccccc1CNCCCCCCNCCCCCCCCNCCCCCCNCc1ccccc1OC [methoctramine]	–	–	–	–	increased dose-dependently	reactivated to induce the calcium level increase	any increase in calcium levels was not observed	–	–
COC(=O)[C@H]1[C@H]2C[C@@H]3c4[nH]c5cc(OC)ccc5c4CCN3C[C@H]2C[C@@H](OC(=O)c2cc(OC)c(OC)c(OC)c2)[C@@H]1OC [reserpine]	–	–	–	–	increased dose-dependently	–	–	detected dose-dependently only in the human GPR52 expression CHO cell line	internalization occurred
